Test results taken from PMC6337261, “Short Peptides with Uncleavable Peptide Bond Mimetics as Photoactivatable Caspase-3 Inhibitors” (Molecules, 2019).

Experiments:
[1] = tested on: caspase-3; experiment: Competitive ABPP with bisulfite aldehyde quenching; type: biochemical
Source text: (§1) The presence of a ψ(CH2NH) peptide with benzophenone or UV irradiation alone was not sufficient for inhibition, but all needed to be present to block the caspase-3 active site (Figure 3G,H). We hypothesized that the active species is a peptide aldehyde, formed by oxidation of the ψ(CH2NH) moiety (see also discussion in Section 3). To support this hypothesis, we performed an experiment in which this aldehyde was trapped by sodium bisulfite, forming a sodium bisulfite adduct.
Compounds were incubated with or without irradiation (10 min) in PBS with or without 10 mM NaHSO3 and incubated for another 20 min before addition to caspase-3. After 30 min, ABP 13 was added (final concentration 1 μM) to label residual caspase activity. The samples were incubated for 30 min at room temperature, after which 1/3rd volume of 4× Laemmli buffer was added. Samples were processed in the same way as under Section 4.4.1.
(§2) Figure 3 Non-covalent inhibition of caspase-3 by compounds 9 and 10. (A) Fluorescent labeling of caspase-3 by ψ(CH2NH) peptides 9–10 and triazolo peptides 11–12. […] (B) Deconvoluted ESI-MS of caspase-3. (C) Deconvoluted ESI-MS of caspase-3 after incubation with covalent activity-based probe (ABP) 13. Note that the active site, located on the large subunit, is modified. (D) Deconvoluted ESI-MS of caspase-3 after irradiation in the presence of benzophenone ψ(CH2NH) 10a, not resulting in covalent modification. […] (F) Structures of ψ(CH2NH) peptides 14 and 15 without photocrosslinker. (G) UV irradiation of ψ(CH2NH) peptides 14 and 15 in the presence of benzophenone leads to inhibition of caspase-3, as monitored by competitive ABPP. […] Ac-DEVD-aldehyde (100 nM) was used as a control compound, whereas 9a and 10a (10 μM) were irradiated for 10 min and reacted with sodium bisulfite for an additional 20 min before 30 min incubation with caspase-3 and read-out with a fluorescent caspase ABP.

[2] = tested on: caspase-3; experiment: Competitive ABPP with ψ(CH2NH) peptides irradiated in presence of spiked-in benzophenone; type: biochemical; settings: for Inhibition of caspase-3 after irradiation with benzophenone: irradiated in presence of an equimolar amount (1 eq) of benzophenone
Source text: as §1
(§3) Although this points towards a cyclization rather than reaction with a water molecule, it is not clear whether it leads to a potent caspase inhibitor. […] Therefore, cyclization seemed improbable, as this would most likely lead to a shift in retention time. We hypothesized that irradiation could potentially lead to oxidation of a very small amount of the ψ(CH2NH) moiety with benzophenone as a photosensitizer, resulting in minute quantities of aldehydes that were not detected on LC-MS, but were sufficient for caspase-3 inhibition. Oxidation of secondary amines under influence of benzophenone has been reported before. […] Note that triazoles cannot undergo this transformation, further explaining their inactivity. The oxidation hypothesis was supported by an experiment in which ψ(CH2NH) peptides 14 and 15, not containing a benzophenone, were irradiated in the presence of 1 eq of spiked-in benzophenone (Figure 3G–I).
Caspase-3, produced in E. coli and purified as described before, was reacted in PBS with 1 mM DTT. Samples were combined with the indicated probe and irradiated with a handheld UV lamp at 365 nm for 30 min at room temperature. […]
Figure 3 Non-covalent inhibition of caspase-3 by compounds 9 and 10. […] (G) UV irradiation of ψ(CH2NH) peptides 14 and 15 in the presence of benzophenone leads to inhibition of caspase-3, as monitored by competitive ABPP. […] Ac-DEVD-aldehyde (100 nM) was used as a control compound, whereas 9a and 10a (10 μM) were irradiated for 10 min and reacted with sodium bisulfite for an additional 20 min before 30 min incubation with caspase-3 and read-out with a fluorescent caspase ABP.

[3] = tested on: caspase-3; experiment: Gel-based competitive ABPP on recombinant caspase-3; type: biochemical; settings: for Inhibition of caspase-3 activity (caspase ABP labeling): PBS with 1 mM DTT, fluorescent ABP read-out on gel; for Inhibition of caspase-3 (competitive ABPP, Figure S1): triazolo peptides at 100 μM
Procedure: (§4) To check whether our probes function as inhibitors, competitive ABPP [28] was performed. Recombinant caspase-3 was incubated with probes 9a–10c, 11a and 12a with or without irradiation at 365 nm, followed by labeling of residually active caspase-3 with the fluorescent, caspase-directed activity-based probe (ABP) SV149, a tetramethylrhodamine derivative of KMB-01 [29]. Caspase activity itself was not affected by UV irradiation, as shown by bands of equal intensity with and without UV light (Figure 2A). […] To confirm inhibition, we also performed substrate cleavage assays using the fluorogenic aminomethyl coumarin substrate Ac-DEVD-AMC. […] Inhibition of active caspases could also be achieved in an apoptotic cell lysate (Figure 2D).
(§5) Caspase-3, produced in E. coli and purified as described before, was reacted in PBS with 1 mM DTT. Samples were combined with the indicated probe and irradiated with a handheld UV lamp at 365 nm for 30 min at room temperature. For competition experiments with ‘pre-activation,’ the indicated probes were irradiated for 30 min prior to addition to caspase-3, and incubated for an additional 30 min. Next, ABP 13 was added (final concentration 1 μM) to label residual caspase-3 activity. The samples were incubated for 30 min at room temperature, after which 1/3rd volume of 4× Laemmli buffer was added. Samples were heated at 95 °C for 2 min and resolved by 15% SDS-PAGE. Gels were scanned using a Typhoon Trio+ fluorescent scanner with excitation at 532 nm and an emission filter of 580 nm. Gel images were processed with ImageJ (background subtraction with rolling ball radius of 50 pixels and automated contrast adjustment).
(§6) Figure 2 Inhibition of caspase-3. (A) Competitive activity-based protein profiling (ABPP) experiments using ψ(CH2NH) or triazolo peptide derivatives 9–12 with or without irradiation. Compounds 9a–12a were used at 10 μM final concentration, 9b, 9c, 10b and 10c at 100 μM. Inh = caspase inhibitor biotin-DEVD-AOMK, used at 100 nM concentration. (B) Representative progress curves of fluorescence produced by Ac-DEVD-AMC (50 μM) cleavage by caspase-3, irradiated with or without 10 μM of the indicated compounds. (C) Bar graph of residual caspase-3 activity of replicate experiments (n = 2) of those in (B). (D) Inhibition of executioner’s caspase-3 and -7 in lysates of HEK293 cells, treated with cytochrome c/dATP to induce apoptosis.

[4] = tested on: caspase-3; experiment: Competitive ABPP with UV pre-activation of the probes; type: biochemical; settings: compound irradiated at 365 nm for 30 min, light source removed, then added to caspase-3 for 30 min; fluorescent ABP read-out
Procedure: (§7) Compounds were irradiated with UV light of 365 nm for 30 min and after removal of the light source added to caspase-3. Residual caspase activity was measured by using a fluorescent caspase ABP as in our previous experiments above.
as §5, §2

[5] = LC-MS analysis of probes before and after UV irradiation; type: physicochemical; settings: irradiation at 365 nm, gradient 10% to 95% acetonitrile with 0.1% formic acid
Procedure: as §7, §3
All materials were purchased from Sigma Aldrich GmbH (GmbH, Darmstadt, Germany), Carl Roth GmbH + Co. KG (Karlsruhe, Germany), Thermo Fischer Scientific Inc. (Dreieich, Germany), Rapp Polymere GmbH (Tübingen, Germany), Applichem GmbH (Darmstadt, Germany), VWR International GmbH (Darmstadt, Germany), Merck KGaA (Darmstadt, Germany), CreoSalus Inc. (Louisville, KY, USA), and Iris Biotech GmbH (Marktredwitz, Germany) and were used as received, unless otherwise noted. TLC was performed on pre-coated ALUGRAM SIL G plates with detection by a handheld UV lamp (254 nm) and subsequent staining with potassium permanganate, p-anisaldehyde, ninhydrin or cerium ammonium molybdate. LC-MS analysis was performed on a Thermo LCQ Fleet HPLC-MS/MS system using a gradient of 10% to 95% acetonitrile containing 0.1% formic acid. NMR spectra were recorded on a Bruker Avance DRX 400 spectrometer with tetramethylsilane as internal standard. High resolution ESI-FTMS was performed on a Thermo Scientific LTQ Orbitrap Velos Pro mass spectrometer.

[6] = tested on: caspase-3; experiment: Fluorogenic substrate (Ac-DEVD-AMC) cleavage assay; type: biochemical; settings: 10 μM compound, 2 nM caspase-3, 50 μM Ac-DEVD-AMC, HEPES pH 7.4 with 10 mM DTT, n = 2
Procedure: as §4
Purified caspase-3 (2 nM) was pre-activated by incubating in caspase reaction buffer (20 mm HEPES pH 7.4, 100 mM NaCl, 1 mM EDTA, 10% sucrose (w/v), 0.1% CHAPS (w/v), 10 mM DTT) for 15 min at 37 °C. Inhibitors 9a, 10a, and DMSO (control) were incubated with the caspase-3 at 10 μM final concentration. One set was irradiated with a handheld UV lamp at 365 nm for 30 min at room temperature whereas the control set was not irradiated. After 30 min, 99 μL of the sample was added to 1 μL of Ac-DEVD-AMC fluorogenic substrate (5 mM in dmso; 50 μM final concentration) in a black 96 well plate. The fluorescence intensity was read using an iD3 SpectraMax platereader (Molecular Devices; excitation wavelength: 340 nm; emission wavelength: 475 nm). The experiment was performed in duplicate. Activity was determined as the slope from the linear part of the progress curve by using GraphPad Prism.
as §6

[7] = 10 μM compound, irradiated at 365 nm for 30 min at room temperature
[8] = 100 μM compound, irradiated at 365 nm for 30 min at room temperature
[9] = 100 μM compound, non-irradiated

Inhibition of caspase-3 activity (caspase ABP labeling) [3, 7]	Inhibition of caspase-3 activity (caspase ABP labeling) [3, 8]	Inhibition of caspase-3 after UV pre-activation of compound [4]	Change of probe upon UV irradiation (LC-MS before and after) [5]	Substance	further results
some inhibition				Hexynoyl-Asp-Glu-Val-Asp(triazolo)-Ala-Bpa-Gly-NH2 [12a]	Inhibition of caspase-3 (competitive ABPP, Figure S1) [3]: inhibition that is nearly quantitative
	did not show any inhibition			Hexynoyl-Asp-Glu-Val-Aspψ(CH2NH)-Ala-p-azido-Phe-NH2 [10c]	
	complete inhibition	still inhibited	loss of nitrogen	Hexynoyl-Asp-Glu-Val-Aspψ(CH2NH)-Ala-photoLeu-NH2 [10b]	Inhibition of caspase-3 activity (caspase ABP labeling) [3, 9]: no decrease in caspase ABP labeling
did not				Hexynoyl-Bpa-Asp-Glu-Val-Asp(triazolo)-Ala-NH2 [11a]	Inhibition of caspase-3 (competitive ABPP, Figure S1) [3]: not show efficient inhibition
complete inhibition		still inhibited	did not show obvious changes	Hexynoyl-Bpa-Asp-Glu-Val-Aspψ(CH2NH)-Ala-NH2 [9a]	Inhibition of caspase-3 activity (caspase ABP labeling) ([3]; 10 μM compound, non-irradiated): no decrease in caspase ABP labeling; Inhibition of Ac-DEVD-AMC cleavage by caspase-3 ([6]; irradiated at 365 nm for 30 min at room temperature): complete blockage of substrate processing; Inhibition of Ac-DEVD-AMC cleavage by caspase-3 ([6]; not irradiated): little to no inhibition; Inhibition of caspase-3 by irradiated sample exposed to sodium bisulfite ([1]; 10 μM, irradiated 10 min, reacted with 10 mM NaHSO3 for 20 min, then 30 min with caspase-3, fluorescent ABP read-out): lose their inhibitory capacity
	did not show any inhibition			Hexynoyl-p-azido-Phe-Asp-Glu-Val-Aspψ(CH2NH)-Ala-NH2 [9c]	
	complete inhibition	still inhibited	loss of nitrogen	Hexynoyl-photoLeu-Asp-Glu-Val-Aspψ(CH2NH)-Ala-NH2 [9b]	Inhibition of caspase-3 activity (caspase ABP labeling) [3, 9]: no decrease in caspase ABP labeling

The remaining lines, values behind:

Substance	Inhibition of caspase-3 activity (caspase ABP labeling) [3, 7]	Inhibition of caspase-3 activity (caspase ABP labeling) [3, 8]	Inhibition of caspase-3 after UV pre-activation of compound [4]	Change of probe upon UV irradiation (LC-MS before and after) [5]	further results
Ac-DEVD-aldehyde [Ac-DEVD peptide aldehyde, reference compound]					Inhibition of caspase-3 ([1]; 100 nM, without bisulfite, 30 min incubation with caspase-3, fluorescent ABP read-out): efficiently inhibits caspase-3
Acetyl-Asp-Glu-Val-Aspψ(CH2NH)-Ala-NH2 [compound 14]					Inhibition of caspase-3 after irradiation with benzophenone [2]: still led to inhibition; Requirement for inhibition of caspase-3 ([2]; with or without benzophenone (BP) and UV irradiation): needs both BP and UV irradiation
Hexynoyl-Asp-Glu-Val-Aspψ(CH2NH)-Ala-NH2 [compound 15]					Inhibition of caspase-3 after irradiation with benzophenone [2]: still led to inhibition
